{"source": "the NIST ThermoML archive (doi:10.1016/j.jct.2012.05.008)", "test": "xn = mol fraction of the nth substance listed", "details": "Liquid, Vibrating tube method, x2 = 0.3333", "note": "± gives the expanded uncertainty stated by the source.", "data": [{"compound": "NC(N)=O", "note": "[urea] + C[N+](C)(C)CCO.[Cl-]", "values": [{"measurement": "mass density", "setting": "298.15 K, 100 kPa", "result": "1197.9 ± 2.7", "unit": "kg/m3"}, {"measurement": "mass density", "setting": "298.15 K, 5000 kPa", "result": "1199.3 ± 2.7", "unit": "kg/m3"}, {"measurement": "mass density", "setting": "298.15 K, 10000 kPa", "result": "1200.6 ± 2.7", "unit": "kg/m3"}, {"measurement": "mass density", "setting": "298.15 K, 15000 kPa", "result": "1201.9 ± 2.7", "unit": "kg/m3"}, {"measurement": "mass density", "setting": "298.15 K, 20000 kPa", "result": "1203.3 ± 2.7", "unit": "kg/m3"}, {"measurement": "mass density", "setting": "298.15 K, 25000 kPa", "result": "1204.6 ± 2.8", "unit": "kg/m3"}, {"measurement": "mass density", "setting": "298.15 K, 30000 kPa", "result": "1205.9 ± 2.8", "unit": "kg/m3"}, {"measurement": "mass density", "setting": "298.15 K, 35000 kPa", "result": "1207.1 ± 2.8", "unit": "kg/m3"}, {"measurement": "mass density", "setting": "298.15 K, 40000 kPa", "result": "1208.3 ± 2.8", "unit": "kg/m3"}, {"measurement": "mass density", "setting": "298.15 K, 45000 kPa", "result": "1209.5 ± 2.9", "unit": "kg/m3"}, {"measurement": "mass density", "setting": "298.15 K, 50000 kPa", "result": "1210.7 ± 2.9", "unit": "kg/m3"}, {"measurement": "mass density", "setting": "303.15 K, 100 kPa", "result": "1195.1 ± 2.7", "unit": "kg/m3"}, {"measurement": "mass density", "setting": "303.15 K, 5000 kPa", "result": "1196.4 ± 2.7", "unit": "kg/m3"}, {"measurement": "mass density", "setting": "303.15 K, 10000 kPa", "result": "1197.9 ± 2.7", "unit": "kg/m3"}, {"measurement": "mass density", "setting": "303.15 K, 15000 kPa", "result": "1199.1 ± 2.7", "unit": "kg/m3"}, {"measurement": "mass density", "setting": "303.15 K, 20000 kPa", "result": "1200.4 ± 2.7", "unit": "kg/m3"}, {"measurement": "mass density", "setting": "303.15 K, 25000 kPa", "result": "1201.8 ± 2.8", "unit": "kg/m3"}, {"measurement": "mass density", "setting": "303.15 K, 30000 kPa", "result": "1203.1 ± 2.8", "unit": "kg/m3"}, {"measurement": "mass density", "setting": "303.15 K, 35000 kPa", "result": "1204.4 ± 2.8", "unit": "kg/m3"}, {"measurement": "mass density", "setting": "303.15 K, 40000 kPa", "result": "1205.6 ± 2.8", "unit": "kg/m3"}, {"measurement": "mass density", "setting": "303.15 K, 45000 kPa", "result": "1206.8 ± 2.8", "unit": "kg/m3"}, {"measurement": "mass density", "setting": "303.15 K, 50000 kPa", "result": "1208 ± 2.9", "unit": "kg/m3"}, {"measurement": "mass density", "setting": "308.15 K, 100 kPa", "result": "1192.2 ± 2.6", "unit": "kg/m3"}, {"measurement": "mass density", "setting": "308.15 K, 5000 kPa", "result": "1193.6 ± 2.7", "unit": "kg/m3"}, {"measurement": "mass density", "setting": "308.15 K, 10000 kPa", "result": "1194.9 ± 2.7", "unit": "kg/m3"}, {"measurement": "mass density", "setting": "308.15 K, 15000 kPa", "result": "1196.3 ± 2.7", "unit": "kg/m3"}, {"measurement": "mass density", "setting": "308.15 K, 20000 kPa", "result": "1197.6 ± 2.7", "unit": "kg/m3"}, {"measurement": "mass density", "setting": "308.15 K, 25000 kPa", "result": "1198.9 ± 2.7", "unit": "kg/m3"}, {"measurement": "mass density", "setting": "308.15 K, 30000 kPa", "result": "1200.3 ± 2.8", "unit": "kg/m3"}, {"measurement": "mass density", "setting": "308.15 K, 35000 kPa", "result": "1201.5 ± 2.8", "unit": "kg/m3"}, {"measurement": "mass density", "setting": "308.15 K, 40000 kPa", "result": "1202.8 ± 2.8", "unit": "kg/m3"}, {"measurement": "mass density", "setting": "308.15 K, 45000 kPa", "result": "1204 ± 2.8", "unit": "kg/m3"}, {"measurement": "mass density", "setting": "308.15 K, 50000 kPa", "result": "1205.1 ± 2.9", "unit": "kg/m3"}, {"measurement": "mass density", "setting": "313.15 K, 100 kPa", "result": "1189.3 ± 2.6", "unit": "kg/m3"}, {"measurement": "mass density", "setting": "313.15 K, 5000 kPa", "result": "1190.7 ± 2.7", "unit": "kg/m3"}, {"measurement": "mass density", "setting": "313.15 K, 10000 kPa", "result": "1192 ± 2.7", "unit": "kg/m3"}, {"measurement": "mass density", "setting": "313.15 K, 15000 kPa", "result": "1193.4 ± 2.7", "unit": "kg/m3"}, {"measurement": "mass density", "setting": "313.15 K, 20000 kPa", "result": "1194.7 ± 2.7", "unit": "kg/m3"}, {"measurement": "mass density", "setting": "313.15 K, 25000 kPa", "result": "1196.1 ± 2.7", "unit": "kg/m3"}, {"measurement": "mass density", "setting": "313.15 K, 30000 kPa", "result": "1197.4 ± 2.8", "unit": "kg/m3"}, {"measurement": "mass density", "setting": "313.15 K, 35000 kPa", "result": "1198.7 ± 2.8", "unit": "kg/m3"}, {"measurement": "mass density", "setting": "313.15 K, 40000 kPa", "result": "1200 ± 2.8", "unit": "kg/m3"}, {"measurement": "mass density", "setting": "313.15 K, 45000 kPa", "result": "1201.2 ± 2.8", "unit": "kg/m3"}, {"measurement": "mass density", "setting": "313.15 K, 50000 kPa", "result": "1202.3 ± 2.8", "unit": "kg/m3"}, {"measurement": "mass density", "setting": "318.15 K, 100 kPa", "result": "1186.4 ± 2.6", "unit": "kg/m3"}, {"measurement": "mass density", "setting": "318.15 K, 5000 kPa", "result": "1187.8 ± 2.6", "unit": "kg/m3"}, {"measurement": "mass density", "setting": "318.15 K, 10000 kPa", "result": "1189.2 ± 2.7", "unit": "kg/m3"}, {"measurement": "mass density", "setting": "318.15 K, 15000 kPa", "result": "1190.5 ± 2.7", "unit": "kg/m3"}, {"measurement": "mass density", "setting": "318.15 K, 20000 kPa", "result": "1191.9 ± 2.7", "unit": "kg/m3"}, {"measurement": "mass density", "setting": "318.15 K, 25000 kPa", "result": "1193.2 ± 2.7", "unit": "kg/m3"}, {"measurement": "mass density", "setting": "318.15 K, 30000 kPa", "result": "1194.6 ± 2.7", "unit": "kg/m3"}, {"measurement": "mass density", "setting": "318.15 K, 35000 kPa", "result": "1195.8 ± 2.8", "unit": "kg/m3"}, {"measurement": "mass density", "setting": "318.15 K, 40000 kPa", "result": "1197.1 ± 2.8", "unit": "kg/m3"}, {"measurement": "mass density", "setting": "318.15 K, 45000 kPa", "result": "1198.3 ± 2.8", "unit": "kg/m3"}, {"measurement": "mass density", "setting": "318.15 K, 50000 kPa", "result": "1199.5 ± 2.8", "unit": "kg/m3"}, {"measurement": "mass density", "setting": "323.15 K, 100 kPa", "result": "1183.5 ± 2.6", "unit": "kg/m3"}, {"measurement": "mass density", "setting": "323.15 K, 5000 kPa", "result": "1184.9 ± 2.6", "unit": "kg/m3"}, {"measurement": "mass density", "setting": "323.15 K, 10000 kPa", "result": "1186.3 ± 2.7", "unit": "kg/m3"}, {"measurement": "mass density", "setting": "323.15 K, 15000 kPa", "result": "1187.6 ± 2.7", "unit": "kg/m3"}, {"measurement": "mass density", "setting": "323.15 K, 20000 kPa", "result": "1189 ± 2.7", "unit": "kg/m3"}, {"measurement": "mass density", "setting": "323.15 K, 25000 kPa", "result": "1190.4 ± 2.7", "unit": "kg/m3"}, {"measurement": "mass density", "setting": "323.15 K, 30000 kPa", "result": "1191.6 ± 2.7", "unit": "kg/m3"}, {"measurement": "mass density", "setting": "323.15 K, 35000 kPa", "result": "1193 ± 2.8", "unit": "kg/m3"}, {"measurement": "mass density", "setting": "323.15 K, 40000 kPa", "result": "1194.2 ± 2.8", "unit": "kg/m3"}, {"measurement": "mass density", "setting": "323.15 K, 45000 kPa", "result": "1195.5 ± 2.8", "unit": "kg/m3"}, {"measurement": "mass density", "setting": "323.15 K, 50000 kPa", "result": "1196.7 ± 2.8", "unit": "kg/m3"}]}]}
